Entries after “also recorded” stand apart in the source; their conditions may differ. Where two headings read alike, the source gives them in different places.
Columns and labels:
[1] = tested on: gram-positive and gram-negative bacteria; experiment: Antibacterial activity, overall statement (diffusion discs test); type: cell-based; settings: for Antibacterial: Table 6 summary; for Antibacterial activity, in words: running text
Procedure: (§1) All derivatives were dissolved in acetonitrile to a final concentration of 40 mM. Twenty (20) μl were loaded onto Whatman filter paper discs and dried. Bacillus subtilis, Staphylococcus aureus, and Acinetobacter baumannii were grown in LB (Lenox) O.N. One hundred (100) μl from the starter culture was plated on LB agar (Miller) dishes. Streptococcus sobrinus, and Streptococcus mutans grown in Brain Heary Infusion (BHI, Himedia) O.N. were similarly plated on BHI agar dishes. Discs were laid and incubated O.N. in 37° C. and the diameter of inhibition of bacterial growth was measured.
The antibacterial activities of derivatives showing QSI are outlined in Table 4. […] Similar to that idea, synthetic derivatives of furanon (product of marine algae) shown in-vivo QSI activity without antibacterial activity followed by immune response of the infected animal. Phenolic compounds decrease QS and virulence in PA01 and Chromobacterium violaceum. There is increasing number of studies, searching for compounds that targeting non-vital processes to combat bacteria.

Acinetobacter baumannii = experiment: Diffusion discs test, Acinetobacter baumannii; type: cell-based; design: key: —: no activity; settings: discs with 40 mM of compound in 20 μl solvent
Procedure: as §1

[2] = tested on: Agrobacterium tumefaciens (KYC55); experiment: Quorum sensing inhibition test with bio-reporter KYC55 (TLC overlay); type: cell-based; settings: for Degree of QSI of KYC55: Table 1, coumaperine derivatives, 40 mM in ~20 μL acetonitrile dried on TLC plate, overnight, color intensity; for QSI activity against KYC55, in words: running text; for Degree of QSI of KYC55: key: −: no inhibition; +: low inhibition; ++: medium inhibition; +++: strong inhibition; for Degree of quorum sensing inhibition (QSI), KYC55: key: −: no inhibition; +: low inhibition; ++: medium inhibition; +++: strong inhibition
Procedure, shortened: (§2)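 Compounds (40 mM in acetonitrile, 20 μl) were spotted on TLC and overlaid with soft agar reporter cultures, incubated overnight at 30 °C. CV026 was in LB with 500 nM 3-oxo-C6 (purple pigment), and KYC55 was in AT medium with 5 nM 3-oxo-C8 and 60 μg/ml X-gal (blue). Inhibition zone diameter was measured.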

[3] = tested on: Chromobacterium violaceum (CV026); experiment: Quorum sensing inhibition test with bio-reporter CV026 (TLC overlay); type: cell-based; settings: for Degree of QSI of CV026: Table 1, coumaperine derivatives, 40 mM in ~20 μL acetonitrile dried on TLC plate, overnight, color intensity; for QSI activity against CV026, in words: running text; for Degree of QSI of CV026: key: −: no inhibition; +: low inhibition; ++: medium inhibition; +++: strong inhibition; for Degree of quorum sensing inhibition (QSI), CV026: key: −: no inhibition; +: low inhibition; ++: medium inhibition; +++: strong inhibition
Procedure, shortened: as §2

Streptococcus mutans = experiment: Diffusion discs test, Streptococcus mutans; type: cell-based; design: key: —: no activity; settings: discs with 40 mM of compound in 20 μl solvent
Procedure: as §1

NF-kB = experiment: NF-kB-luciferase reporter gene assay in L428 cells; type: cell-based, human; settings: Table 6 summary; note: key: +: active; −: inactive
Procedure: FIG. 7 includes a vertical bar graph showing a dose response of NF-kB activation according to an NF-kB reporter gene luciferase assay. L428 cells were stably transfected with the NF-kB luciferase reporter gene. The cells were incubated with the compounds at different concentrations for 2 hours. […] The results represent the percentage of NF-kB activation as compared to vehicle (DMSO) treated cells. All samples were normalized to protein concentration. Mean+SD, Two-way ANOVA and Tukey's multiple comparison test. 95% confidence interval (p-values *≤0.0332, **≤0.0021, ***≤0.0002).
L428 cells stable transfectants with the luciferase NF-kB-Luc reporter gene were generated previously described (Ozer et al., 2009), and were maintained in 500 μg/ml of G418 (G418 disulfate salt, Sigma-Aldrich). The cells (5×10^5 /well in triplicate) were incubated for 2 hrs. in 1 ml of medium containing the solvent (DMSO) or different concentrations of the molecules tested. Cells were then harvested, lysed, and monitored by a luciferase reporter assay kit (Promega) according to the manufacturer's instructions. Measurements were carried out using a luminometer (Promega, GLOMAX™ 20/20 Luminometer). Data were normalized to the protein concentration in each lysate as measured by the Bradford method (BioRad) and normalized to the control. Experiments were repeated at least three times.

Staphylococcus aureus = experiment: Diffusion discs test, Staphylococcus aureus; type: cell-based; design: key to Staphylococcus aureus, diameter of growth inhibition: —: no activity; settings: for Staphylococcus aureus, diameter of growth inhibition: discs with 40 mM of compound in 20 μl solvent
Procedure: as §1

Streptococcus sobrinus = experiment: Diffusion discs test, Streptococcus sobrinus; type: cell-based; design: key: —: no activity; settings: discs with 40 mM of compound in 20 μl solvent
Procedure: as §1

L428 cells = experiment: in vitro; settings: for CC50: read-out: LC50, L428 cells, 48 hrs
Procedure: (§3) The human Hodgkin's Lymphoma derived L428 cell line was used as a model. The cells were grown in RPMI Medium 1640 with 10% FBS, 1% Glutamine and pen-strep (all from Biological Industries, Israel). […] Thirty thousand (30,000) cells/well were placed in 96-well plates with the coumaperine derivatives at different concentrations or with vehicle (DMSO) at a final volume of 200 μl. The plates were incubated for 48 hrs. at 37° C. and 5% CO2 followed by the addition of 50 μl of the XTT reagent tetrazolium-formazan, (Biological Industries, Israel) was added for 2 hrs. at 37° C., 5% CO2. In living cells, mitochondria […] the tetrazolium-formazan salt, thereby generating a color absorbing product at 450 nm. Absorbance was measured at 450 nm and 650 nm in an enzyme-linked immunosorbent assay (ELISA) plate reader (Multiskan Spectrum, Version 1.2), and recorded. Absorption values at 650 nm were subtracted from the blank and the 450 nm values. The results were normalized to the control (treated with DMSO).
(§4) Viability was determined in triplicate in two independent tests. The results were normalized to vehicle (DMSO) treated cells, (100% viability). Mean+SD.

in vitro = settings: human, LC50
Procedure: as §3, §4

[4] = tested on: quorum sensing (CV026 and KYC55); experiment: Quorum sensing inhibition, overall statement over the bio-reporter bacteria; type: cell-based; settings: for QSI: Table 6 summary
Procedure: TLC preparation: all derivatives were dissolved in 100% acetonitrile to a concentration of 40 mM. Then placed 20 μlon the same spot on the TLC and let the solvent evaporate before use. CV026: few colonies were transferred to liquid LB (Lenox) for overnight incubation at 30° C. in a 45 degree in orbital shaker. At the O.D. 0.8 3 ml of the starter was added to preheated soft LB agar containing 500 nM of 3-oxo-C6 (Sigma-Aldrich). The mixture was then loaded on the TLC in a glass plate for O.N. incubation in 30° C. The next day inhibition zone was measured, while QS is taking place bacteria produce purple pigment, and when QS is inhibited no pigment is produced. KYC55 (pJZ372) (pJZ384) (pJZ410): 20 μl from the frozen stock into 25 ml AT media (AT buffer×20: 1.57 M KH2PO4 pH=7.3. AT salts mix×20: 300 mM (NH4)2SO4, 13 mM MgSO4, 1.4 mM CaCl2, 0.4 mM FeSO4·7H2O, 0.26 mM MnSO4·H2O. AT media: 50 ml×20 AT-buffer, 50 ml×20 AT-salts, 10 ml 50% (w/v) glucose, add 890 ml to final volume of 1 liter.) For O.N. at 30° C. in an orbital shaker. Into preheated water agar with 25 ml AT-buffer, and 60 μg/ml X-gal and 5 nM 3-oxo-c8 (both from Sigma-Aldrich) 25 ml of the starter was added. Then, that mixture was loaded on the TLC in glass plate for O.N. incubation in 30° C. The next day the inhibition zone was measured. The bacteria produce blue pigment during QS and when QS is inhibited no pigment is produced. KYC55 (pJZ372) (pJZ384) (pJZ410) preservation in tetracycline (1 μg/ml), spectinomycin (100 μg/ml), gentamicin (100 μg/ml) (all antibiotics from Sigma Aldrich) in AT media O.N. then centrifuged and suspend in 15% glycerol frozen and maintained at −80° C.
All the synthesized compounds were evaluated for quorum sensing inhibition against two bioreporter bacteria strains, Chromobacterium violaceum (CV026) and Agrobacterium tumefaciens (KYC55) and the results are summarized in Table 1.

PA01 = experiment: Diffusion discs test, PA01; type: cell-based, P. aeruginosa; design: key: —: no activity; settings: discs with 40 mM of compound in 20 μl solvent
Bacillus subtilis = experiment: Diffusion discs test, Bacillus subtilis; type: cell-based; design: key: —: no activity; settings: discs with 40 mM of compound in 20 μl solvent
Procedure: as §1

[5] = Table 2, piperlongumine derivatives

Structure (SMILES) | Antibacterial [1] | Antibacterial activity, in words [1] | Acinetobacter baumannii, diameter of growth inhibition (Acinetobacter baumannii) | Degree of QSI of KYC55 [2] | QSI activity against KYC55, in words [2] | Degree of QSI of CV026 [3] | QSI activity against CV026, in words [3] | Streptococcus mutans, diameter of growth inhibition (Streptococcus mutans) | Anti-inflammatory (NF-kB) | Staphylococcus aureus, diameter of growth inhibition (Staphylococcus aureus) | Streptococcus sobrinus, diameter of growth inhibition (Streptococcus sobrinus) | Cytotoxic (L428 cells) | CC50 at 48 h (in vitro) [µM] | QSI [4] | PA01, diameter of growth inhibition (PA01) | Bacillus subtilis, diameter of growth inhibition (Bacillus subtilis) | further results
O=C(/C=C/C=C/c1ccc(F)cc1)N1CCCCC1 [CP-154, (2E,4E)-5-(4-fluorophenyl)-1-(piperidin-1-yl)penta-2,4-dien-1-one] | + | showed antibacterial activity | — | +++ | highly active | +++ | highly active | — | + | 11 mm | 9 mm | + | 46.8 | + | — | 7 mm | Cytotoxic activity, in words (L428 cells): cytotoxic; QSI activity overall, in words ([4]; running text): anti QS activity
CSc1ccc(/C=C/C=C/C(=O)N2CCCCC2)cc1 [CP-147, (2E,4E)-5-(4-(methylthio)phenyl)-1-(piperidin-1-yl)penta-2,4-dien-1-one] |  | showed antibacterial activity | — | − | inactivity; also recorded: does not affect QS | + | low activity; also recorded: low QS inhibition effect | — |  | 9 mm | — |  |  |  | — | — | Staphylococcus aureus growth inhibition, in words (Staphylococcus aureus; running text): inhibits Staphylococcus aureus growth
O=C(/C=C/C1CCCCC1)N1CCCCC1 [CP-295, (E)-cyclohexyl-1-(piperidin-1-yl)prop-2-en-1-one] |  | showed antibacterial activity | — | ++ | moderate activity | ++ | moderate activity | — |  | — | 12 mm |  | 408 |  | — | — | 
O=C1C=CCCN1C(=O)/C=C/c1cc(O)c(O)c(O)c1 [PL-25, trihydroxy piperlongumine] |  | showed antibacterial activity | — |  | moderate inhibition |  | inactive | — |  | 9 mm | — |  | 46.3 |  | — | — | Degree of quorum sensing inhibition (QSI), KYC55 [2, 5]: ++; Degree of quorum sensing inhibition (QSI), CV026 [3, 5]: −
O=C(/C=C/C(=O)N1CCCCC1)c1ccc(F)c(F)c1 [CP-287, (E)-3-(benzoyl 3,4-difluoro)-1-(piperidin-1-yl)prop-2-en-1-one] | − | showed antibacterial activity | — |  |  |  |  | — | + | — | 9 mm | + |  | + | — | — | CC50 (L428 cells): 284 µM; CC50 (L428 cells; Table 5): 284 µM
